This test concerns the target PI3Kα (alpha) (Homo sapiens (Human), UniProt P42336). The test can be described thus: p110α (alpha) PI3K Binding Assay (ADP-Glo lipid kinase reaction). The test is classed as biochemical. The following applies: PI3K alpha 0.2 nM, ATP 40 μM, PIP2:3PS 50 μM, 120 min, room temperature; Ki by Morrison Equation; read-out: PI3Kα-(alpha) ATP (Ki) micromolar. Summed up:
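Enzyme with PIP2:3PS lipid substrate and ATP/MgCl2 in 50 mM HEPES, 50 mM NaCl, 3 mM MgCl2, 0.01% BSA, 1% DMSO, 120 min at room temperature. ADP formed detected by ADP-Glo luminescence. Ki from 10-point dose-response curves via the Morrison equation.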

Some results are limits rather than exact numbers.

Chain of PI3Kα (alpha) (P42336 whole entry): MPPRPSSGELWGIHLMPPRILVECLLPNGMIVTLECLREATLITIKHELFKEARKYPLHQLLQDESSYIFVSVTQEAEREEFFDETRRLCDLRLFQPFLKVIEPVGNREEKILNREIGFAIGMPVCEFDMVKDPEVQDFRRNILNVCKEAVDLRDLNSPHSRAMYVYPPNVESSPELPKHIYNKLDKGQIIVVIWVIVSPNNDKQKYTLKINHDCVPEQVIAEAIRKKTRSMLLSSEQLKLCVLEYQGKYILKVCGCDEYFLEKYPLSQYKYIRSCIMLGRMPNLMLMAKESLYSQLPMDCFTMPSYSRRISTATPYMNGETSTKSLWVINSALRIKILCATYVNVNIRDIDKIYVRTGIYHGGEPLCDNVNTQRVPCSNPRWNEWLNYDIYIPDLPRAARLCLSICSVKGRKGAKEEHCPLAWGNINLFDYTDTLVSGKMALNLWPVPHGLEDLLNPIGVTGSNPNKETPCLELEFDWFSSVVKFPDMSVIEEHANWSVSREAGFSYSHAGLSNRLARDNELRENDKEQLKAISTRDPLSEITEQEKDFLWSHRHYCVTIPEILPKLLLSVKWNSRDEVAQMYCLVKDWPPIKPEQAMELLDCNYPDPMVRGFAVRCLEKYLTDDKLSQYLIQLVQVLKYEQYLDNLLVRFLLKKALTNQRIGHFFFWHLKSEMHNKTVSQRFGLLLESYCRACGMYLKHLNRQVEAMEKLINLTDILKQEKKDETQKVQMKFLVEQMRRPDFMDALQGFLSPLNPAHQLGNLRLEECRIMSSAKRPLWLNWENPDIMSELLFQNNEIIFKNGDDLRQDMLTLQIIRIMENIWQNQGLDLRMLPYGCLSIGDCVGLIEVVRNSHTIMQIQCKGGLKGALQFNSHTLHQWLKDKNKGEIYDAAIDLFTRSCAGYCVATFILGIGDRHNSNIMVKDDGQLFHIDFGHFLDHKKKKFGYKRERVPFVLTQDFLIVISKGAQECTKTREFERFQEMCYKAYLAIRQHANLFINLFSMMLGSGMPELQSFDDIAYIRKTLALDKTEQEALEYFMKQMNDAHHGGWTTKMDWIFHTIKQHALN
Chain of PI3Kα (alpha) (P27986 whole entry partner): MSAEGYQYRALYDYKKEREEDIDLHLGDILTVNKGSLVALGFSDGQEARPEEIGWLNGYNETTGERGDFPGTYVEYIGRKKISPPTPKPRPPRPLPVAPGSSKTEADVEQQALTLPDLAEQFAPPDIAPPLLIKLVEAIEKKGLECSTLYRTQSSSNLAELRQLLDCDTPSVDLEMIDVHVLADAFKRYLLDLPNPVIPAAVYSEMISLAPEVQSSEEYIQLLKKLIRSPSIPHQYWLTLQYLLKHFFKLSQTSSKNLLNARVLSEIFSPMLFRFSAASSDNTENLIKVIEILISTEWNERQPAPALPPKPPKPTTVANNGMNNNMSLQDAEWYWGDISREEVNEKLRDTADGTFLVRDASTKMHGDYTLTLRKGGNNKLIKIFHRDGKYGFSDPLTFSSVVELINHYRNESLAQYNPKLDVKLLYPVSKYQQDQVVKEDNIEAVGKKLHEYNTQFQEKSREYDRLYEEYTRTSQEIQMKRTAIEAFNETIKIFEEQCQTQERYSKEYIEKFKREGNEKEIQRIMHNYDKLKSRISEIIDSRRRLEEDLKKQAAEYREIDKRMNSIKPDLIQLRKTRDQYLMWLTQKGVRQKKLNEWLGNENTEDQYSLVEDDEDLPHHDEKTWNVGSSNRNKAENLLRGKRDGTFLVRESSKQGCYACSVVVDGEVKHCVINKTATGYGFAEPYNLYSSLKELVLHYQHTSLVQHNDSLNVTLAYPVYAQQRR

In the case of `CNc1nc2cc(-c3nc4cc(N5CCC[C@H]5C(N)=O)cc5c4n3CCCO5)ccc2o1` [Example 186, (S)-1-(1-(2-(methylamino)benzo-[d]oxazol-5-yl)-8,9-dihydro-7H-6-oxa-2,9a-diazabenzo[cd]azulen-4-yl)pyrrolidine-2-carboxamide], the Ki is 6.93 nM. As for `Cc1cc(-c2nc3cc(N[C@H](C(N)=O)C4CC4)cc4c3n2CCCO4)nc(CO)n1` [Example 123, (S)-2-Cyclopropyl-2-((1-(2-(hydroxymethyl)-6-methylpyrimidin-4-yl)-8,9-dihydro-7H-6-oxa-2,9a-diazabenzo[cd]azulen-4-yl)amino)acetamide], the figure is 45 nM; as for `COc1ccc(CNC(=O)[C@@H]2CCCN2c2cc3c4c(c2)nc(-c2ccc5oc(N)nc5c2)n4CCCO3)cc1` [Example 236, (S)-1-(1-(2-Aminobenzo[d]oxazol-5-yl)-8,9-dihydro-7H-6-oxa-2,9a-diazabenzo[cd]azulen-4-yl)-N-(4-methoxybenzyl)pyrrolidine-2-carb oxamide], 21 nM. Under `C[C@H](Nc1cc2c3c(c1)nc(-c1cccnc1)n3CCCO2)C(N)=O` [Example 108, (S)-2-((1-(Pyridin-3-yl)-8,9-dihydro-7H-6-oxa-2,9a-diazabenzo[cd]azulen-4-yl)amino)propanamide] stands 22.1 nM; under `NC(=O)[C@@H]1CCCN1c1cc2c3c(c1)nc(-c1ccc(N4CCNC4=O)cc1)n3CCCO2` [Example 234, (S)-1-(1-(4-(2-Oxoimidazolidin-1-yl)phenyl)-8,9-dihydro-7H-6-oxa-2,9a-diazabenzo[cd]azulen-4-yl)pyrrolidine-2-carboxamide], 83.7 nM; under `NC(=O)[C@@H](Nc1cc2c3c(c1)nc(-c1cnn(C4COC4)c1)n3CCCO2)C1CC1` [Example 210, (S)-2-Cyclopropyl-2-((1-(1-(oxetan-3-yl)-1H-pyrazol-4-yl)-8,9-dihydro-7H-6-oxa-2,9a-diazabenzo[cd]azulen-4-yl)amino)acetamide], 285 nM.

On to `NC(=O)[C@@H]1CCCN1c1cc2c3c(c1)nc(-c1ccc4oc(N)nc4c1)n3CCCCO2` [Example 250, (S)-1-(1-(2-Aminobenzo[d]oxazol-5-yl)-7,8,9,10-tetrahydro-6-oxa-2,10a-diazacycloocta[cd]inden-4-yl)pyrrolidine-2-carboxamide], for which the Ki was below 0.02 nM. Under `NC(=O)[C@@H](Nc1cc2c3c(c1)nc(-c1cc(Cl)c4oc(N)nc4c1)n3CCCO2)C1CC1` [Example 209, (S)-2-((1-(2-Amino-7-chlorobenzo[d]oxazol-5-yl)-8,9-dihydro-7H-6-oxa-2,9a-diazabenzo[cd]azulen-4-yl)amino)-2-cyclopropylacetamide] stands 0.095 nM; under `NC(=O)[C@@H](Nc1cc2c3c(c1)nc(-c1ccncc1)n3CCCO2)C1CC1` [Example 165, (S)-2-Cyclopropyl-2-((1-(pyridin-4-yl)-8,9-dihydro-7H-6-oxa-2,9a-diazabenzo[cd]azulen-4-yl)amino)acetamide], 108 nM. Under `NC(=O)[C@@H](Nc1cc2c3c(c1)nc(-c1ccc4nccnc4c1)n3CCCO2)C1CC1` [Example 117, (S)-2-Cyclopropyl-2-((1-(quinoxalin-6-yl)-8,9-dihydro-7H-6-oxa-2,9a-diazabenzo[cd]azulen-4-yl)amino)acetamide] stands 1.18 nM; under `C[C@@H](Oc1cc2c3c(c1)nc(-c1cc4sc(N)nc4cc1F)n3CCCCO2)C(N)=O` (single isomer, unassigned) [Example 278], 4.6 nM; under `NC(=O)[C@@H]1COCCN1c1cc2c3c(c1)nc(-c1ccc4nc(N)sc4c1)n3CCCCO2` [Example 262, (S)-4-(1-(2-Aminobenzo[d]thiazol-6-yl)-7,8,9,10-tetrahydro-6-oxa-2,10a-diazacycloocta[cd]inden-4-yl)morpholine-3-carboxamide], 1.95 nM. As for `NC(=O)[C@@H](Oc1cc2c3c(c1)nc(-c1cc(F)c4nc(N)sc4c1)n3CCCCO2)C1CC1` (single isomer, unassigned) [Example 280], the Ki was below 0.02 nM.
